Target: T1, HIV-1 reverse transcriptase (Human immunodeficiency virus type 1 group M subtype B, UniProt P04585)
T1 construct: equivalent to 2.85nM for an equimolar mixture of p66 and p51 polypeptides; host or cells: E. coli
Experiment: Assay for reverse transcriptase activity (incorporation of radioactive dGMP from [3H]dGTP into Poly (rC). p(dG)12-18)
Type: biochemical, human immunodeficiency virus type 1 (HIV-1)
Conditions: for IC50: approximate, from plot of % inhibition against concentration of inhibitor, 1.02µM [3H]dGTP, 65 minutes at 37°C
Experimental: Chemicals [^3H]dGTP (16.3 Ci/mmol) was purchased from Amersham International, Aylesbury, U.K. Template primer Poly (rC). p(dG)12-18 (1:1, rC:dG ratio) and 2',3'-dideoxyguanosine-5-triphosphate (ddGTP) were obtained from Pharmacia Ltd., Milton Keynes, U.K. Penciclovir triphosphate (PCV-TP) was prepared in the laboratories of SmithKline Beecham Pharmaceuticals, Great Burgh, United Kingdom.
Reverse transcriptase Purified, E. coli expressed HIV-1 reverse transcriptase (RT) was supplied by the Protein Biochemistry Department of SmithKline Beecham Pharmaceuticals, Upper Merion, U.S.A. The enzyme was stored and diluted in a buffer containing 50mM Tris-HCl (pH 8.0), 10mM Hepes, 110mM NaCl, 5.7mM DTT, 0.3mM EDTA, 0.06% Triton X-100, 50% glycerol.
Assay for reverse transcriptase activity The reaction mixture for the HIV-1 RT assay contained in a volume of 120µl: 33mM Tris HCl (pH 8.0), 100mM KCl, 3.3mM MgCl2, 3.3mM dithiothreitol, 0.2mM glutathione, 0.33mM EGTA (ethylene glycol-bis-(β-aminoethyl ether) N,N-tetra acetic acid), 0.033% Triton X-100, 1.02µM [^3H]dGTP, 0-12.39µM inhibitors ddGTP, PCV-TP, 0.3 A260 units/ml Poly (rC). p(dG)12-18 and 167ng/ml RT (equivalent to 2.85nM for an equimolar mixture of p66 and p51 polypeptides). The reaction mixtures without RT were prepared in the microwells of a 96-well plate and preincubated at 37°C before the reactions were started by the addition of 20µl of the enzyme solution. The plates were then incubated for 65 minutes at 37°C. The incorporation rate was linear for the uninhibited control reaction over this time period. The reactions were terminated by the addition of 40µl of EDTA solution (0.2M, pH7.0). The individual reaction mixtures were transferred to a DEAE filter mat (1205-405, LKB Wallac, Finland), prewetted with 0.3M NaCl/0.03M Na citrate, using a cell harvester (1295-001, LKB Wallac). The filter mat was washed three times in the NaCl/Na citrate buffer and then once in 95% ethanol. Scintillation fluid (Beta Plate Scint, LKB Wallac) was added to the dried filter, and the reaction mixtures assayed for incorporation of radioactive dGMP in an LKB 1205 Beta Plate Liquid Scintillation Counter.

Compound: Nc1nc2c(ncn2[C@H]2CC[C@@H](COP(=O)(O)OP(=O)(O)OP(=O)(O)O)O2)c(=O)[nH]1 [ddGTP, 2',3'-dideoxyguanosine-5-triphosphate, reference compound]
- inhibition at 0.001 µM (1 nM ddGTP): 0%
- Incorporation of dGMP (1 nM ddGTP, uninhibited control 117892): 119726 c.p.m.
- inhibition at 0.01 µM (10 nM ddGTP): 23.7%
- Incorporation of dGMP (10 nM ddGTP, uninhibited control 117892): 89949 c.p.m.
- inhibition at 0.025 µM (25 nM ddGTP): 50.2%
- Incorporation of dGMP (25 nM ddGTP, uninhibited control 117892): 58703 c.p.m.
- inhibition at 0.05 µM (50 nM ddGTP): 70.2%
- Incorporation of dGMP (50 nM ddGTP, uninhibited control 117892): 35091 c.p.m.
- inhibition at 0.075 µM (75 nM ddGTP): 77.8%
- Incorporation of dGMP (75 nM ddGTP, uninhibited control 117892): 26132 c.p.m.
- inhibition at 0.1 µM (100 nM ddGTP): 81.2%
- Incorporation of dGMP (100 nM ddGTP, uninhibited control 117892): 22161 c.p.m.
- IC50: 25 nM

Compound: Nc1nc2c(ncn2CCC(CO)COP(=O)(O)OP(=O)(O)OP(=O)(O)O)c(=O)[nH]1 (racemic) [PCV-TP, Penciclovir triphosphate]
- inhibition at 0.124 µM (0.124 µM PCV-TP): 4%
- Incorporation of dGMP (0.124 µM PCV-TP, uninhibited control 88892): 85313 c.p.m.
- inhibition at 1.24 µM (1.24 µM PCV-TP): 21.2%
- Incorporation of dGMP (1.24 µM PCV-TP, uninhibited control 88892): 70061 c.p.m.
- inhibition at 3.1 µM (3.10 µM PCV-TP): 41.7%
- Incorporation of dGMP (3.10 µM PCV-TP, uninhibited control 88892): 51866 c.p.m.
- inhibition at 6.19 µM (6.19 µM PCV-TP): 63%
- Incorporation of dGMP (6.19 µM PCV-TP, uninhibited control 88892): 32921 c.p.m.
- inhibition at 9.29 µM (9.29 µM PCV-TP): 70.3%
- Incorporation of dGMP (9.29 µM PCV-TP, uninhibited control 88892): 26436 c.p.m.
- inhibition at 12.39 µM (12.39 µM PCV-TP): 73.2%
- Incorporation of dGMP (12.39 µM PCV-TP, uninhibited control 88892): 23844 c.p.m.
- IC50: 4300 nM

Reference: patent EP0538305B1, “P[…] F[…] RELATED GUANINE DERIVATIVES FOR THE TREATMENT OF THE HIV-1 INFECTIONS” (BEECHAM GROUP PLC, priority 1990, dated 1992)
